In patent publication US10770169B2, “Method of providing a treatment to a subject based on a dynamic pathway map” (THE REGENTS OF THE UNIVERSITY OF CALIFORNIA, priority 2010, dated 2020):
Counter-ions that a name gives are not always drawn. Like-named read-outs stand apart in the source and are kept apart here.

System: panel of 55 breast cancer cell lines
Test: Cell growth inhibition assay (Cell Titer Glo, 72 h, 9 doses; GI50, TGI, LC50)
Type: cell-based, human
[1] = Homo sapiens, AU565, AU565 cell line, censored GI50 values, read-out: GI50 (converted)
[2] = Homo sapiens, AU565, cell line AU565, read-out: GI50 (converted)
[3] = Homo sapiens, BT-20, BT20 cell line, censored GI50 values, read-out: GI50 (converted)
[4] = Homo sapiens, BT-20, cell line BT20, read-out: GI50 (converted)
[5] = Homo sapiens, BT-474, BT474 cell line, censored GI50 values, read-out: GI50 (converted)
[6] = Homo sapiens, BT-483, BT483 cell line, censored GI50 values, read-out: GI50 (converted)
[7] = Homo sapiens, CAMA-1, CAMA1 cell line, censored GI50 values, read-out: GI50 (converted)
[8] = Homo sapiens, HCC38, HCC38 cell line, censored GI50 values, read-out: GI50 (converted)
[9] = Homo sapiens, HCC70, HCC70 cell line, censored GI50 values, read-out: GI50 (converted)
[10] = Homo sapiens, HCC1143, HCC1143 cell line, censored GI50 values, read-out: GI50 (converted)
[11] = Homo sapiens, HCC1187, HCC1187 cell line, censored GI50 values, read-out: GI50 (converted)
[12] = Homo sapiens, HCC1395, HCC1395 cell line, censored GI50 values, read-out: GI50 (converted)
[13] = Homo sapiens, HCC1419, HCC1419 cell line, censored GI50 values, read-out: GI50 (converted)
[14] = Homo sapiens, HCC1428, HCC1428 cell line, censored GI50 values, read-out: GI50 (converted)
[15] = Homo sapiens, HCC1500, HCC1500 cell line, censored GI50 values, read-out: GI50 (converted)
[16] = Homo sapiens, HCC1806, HCC1806 cell line, censored GI50 values, read-out: GI50 (converted)
[17] = Homo sapiens, HCC1937, HCC1937 cell line, censored GI50 values, read-out: GI50 (converted)
[18] = Homo sapiens, HCC1954, HCC1954 cell line, censored GI50 values, read-out: GI50 (converted)
[19] = Homo sapiens, HCC2185 cell line, censored GI50 values, read-out: GI50 (converted)
[20] = Homo sapiens, HCC3153 cell line, censored GI50 values, read-out: GI50 (converted)
[21] = Homo sapiens, MDA-MB-134-VI, MDAMB134VI cell line, censored GI50 values, read-out: GI50 (converted)
[22] = Homo sapiens, MDA-MB-175-VII, MDAMB175VII cell line, censored GI50 values, read-out: GI50 (converted)
[23] = Homo sapiens, MDA-MB-231, MDAMB231 cell line, censored GI50 values, read-out: GI50 (converted)
[24] = Homo sapiens, MDA-MB-415, MDAMB415 cell line, censored GI50 values, read-out: GI50 (converted)
[25] = Homo sapiens, MDA-MB-468, MDAMB468 cell line, censored GI50 values, read-out: GI50 (converted)
[26] = Homo sapiens, SK-BR-3, SKBR3 cell line, censored GI50 values, read-out: GI50 (converted)
[27] = Homo sapiens, SUM52PE, SUM52PE cell line, censored GI50 values, read-out: GI50 (converted)
[28] = Homo sapiens, SUM149PT, SUM149PT cell line, censored GI50 values, read-out: GI50 (converted)
[29] = Homo sapiens, SUM225CWN, SUM225CWN cell line, censored GI50 values, read-out: GI50 (converted)
[30] = Homo sapiens, SUM1315MO2, SUM1315MO2 cell line, censored GI50 values, read-out: GI50 (converted)
[31] = Homo sapiens, SUM-159-PT, SUM159PT cell line, censored GI50 values, read-out: GI50 (converted)
[32] = Homo sapiens, T47D, T47D cell line, censored GI50 values, read-out: GI50 (converted)
[33] = Homo sapiens, ZR-75-1, ZR751 cell line, censored GI50 values, read-out: GI50 (converted)

Which results are given for `CNC(=O)c1cc(Oc2ccc(NC(=O)Nc3ccc(Cl)c(C(F)(F)F)c3)cc2)ccn1` [Sorafenib]?
GI50 (Homo sapiens, 600MPE cell line, censored GI50 values, read-out: GI50 (converted)): 45.7 µM; GI50 [1]: 178 µM; GI50 [2]: 178 µM; GI50 [3]: 63.1 µM; GI50 [4]: 63.1 µM; GI50 [5]: 100 µM; GI50 (Homo sapiens, BT-474, cell line BT474, read-out: GI50 (converted)): 100 µM; GI50 [6]: 11.7 µM; GI50 (Homo sapiens, BT-483, cell line BT483, read-out: GI50 (converted)): 11.7 µM; GI50 (Homo sapiens, BT-549, BT549 cell line, censored GI50 values, read-out: GI50 (converted)): 120 µM; GI50 (Homo sapiens, BT-549, cell line BT549, read-out: GI50 (converted)): 120 µM; GI50 [7]: 95.5 µM; GI50 (Homo sapiens, CAMA-1, cell line CAMA1, read-out: GI50 (converted)): 95.5 µM; GI50 [8]: 87.1 µM; GI50 (Homo sapiens, HCC38, cell line HCC38, read-out: GI50 (converted)): 87.1 µM; GI50 [9]: 35.5 µM; GI50 (Homo sapiens, HCC70, cell line HCC70, read-out: GI50 (converted)): 35.5 µM; GI50 (Homo sapiens, HCC202, HCC202 cell line, censored GI50 values, read-out: GI50 (converted)): 72.4 µM; GI50 (Homo sapiens, HCC202, cell line HCC202, read-out: GI50 (converted)): 72.4 µM; GI50 [10]: 58.9 µM; GI50 (Homo sapiens, HCC1143, cell line HCC1143, read-out: GI50 (converted)): 58.9 µM; GI50 [11]: 32.4 µM; GI50 (Homo sapiens, HCC1187, cell line HCC1187, read-out: GI50 (converted)): 32.4 µM; GI50 [12]: 47.9 µM; GI50 (Homo sapiens, HCC1395, cell line HCC1395, read-out: GI50 (converted)): 47.9 µM; GI50 [13]: 417 µM; GI50 (Homo sapiens, HCC1419, cell line HCC1419, read-out: GI50 (converted)): 417 µM; GI50 [14]: 45.7 µM; GI50 (Homo sapiens, HCC1428, cell line HCC1428, read-out: GI50 (converted)): 45.7 µM; GI50 [15]: 178 µM; GI50 (Homo sapiens, HCC1500, cell line HCC1500, read-out: GI50 (converted)): 178 µM; GI50 [16]: 148 µM; GI50 (Homo sapiens, HCC1806, cell line HCC1806, read-out: GI50 (converted)): 148 µM; GI50 [17]: 513 µM; GI50 (Homo sapiens, HCC1937, cell line HCC1937, read-out: GI50 (converted)): 513 µM; GI50 [18]: 55 µM; GI50 (Homo sapiens, HCC1954, cell line HCC1954, read-out: GI50 (converted)): 55 µM; GI50 [19]: 14.8 µM; GI50 [20]: 120 µM; GI50 (Homo sapiens, MCF7, MCF7 cell line, censored GI50 values, read-out: GI50 (converted)): 64.6 µM; GI50 (Homo sapiens, MCF7, cell line MCF7, read-out: GI50 (converted)): 64.6 µM; GI50 [21]: 28.8 µM; GI50 (Homo sapiens, MDA-MB-157, MDAMB157 cell line, censored GI50 values, read-out: GI50 (converted)): 240 µM; GI50 [22]: 81.3 µM; GI50 [23]: 89.1 µM; GI50 (Homo sapiens, MDA-MB-361, MDAMB361 cell line, censored GI50 values, read-out: GI50 (converted)): 60.3 µM; GI50 [24]: 95.5 µM; GI50 (Homo sapiens, MDA-MB-436, MDAMB436 cell line, censored GI50 values, read-out: GI50 (converted)): 51.3 µM; GI50 [25]: 158 µM; GI50 [26]: 70.8 µM; GI50 [27]: 1.7 µM; GI50 [28]: 15.8 µM; GI50 (Homo sapiens, SUM185PE, SUM185PE cell line, censored GI50 values, read-out: GI50 (converted)): 1.48 µM; GI50 [29]: 40.7 µM; GI50 [30]: 186 µM; GI50 [31]: 21.9 µM; GI50 [32]: 25.7 µM; GI50 (Homo sapiens, UACC-893, UACC893 cell line, censored GI50 values, read-out: GI50 (converted)): 331 µM; GI50 [33]: 45.7 µM; GI50 (Homo sapiens, cell line 600MPE, read-out: GI50 (converted)): 45.7 µM; GI50 (Homo sapiens, cell line HCC2185, read-out: GI50 (converted)): 14.8 µM; GI50 (Homo sapiens, cell line HCC3153, read-out: GI50 (converted)): 120 µM

How did the GI50 (CAMA1 cell line, censored GI50 values, value is the negative log10 of mol/L) turn out when `CCc1c2c(nc3ccc(OC(=O)N4CCC(N5CCCCC5)CC4)cc13)-c1cc3c(c(=O)n1C2)COC(=O)[C@]3(O)CC` [CPT-11] was run?
Its GI50 is 4.84.

What about the GI50 (MDAMB157 cell line, censored GI50 values, value is the negative log10 of mol/L) of the same compound?
Its GI50 is 4.80.

And the GI50 (cell line CAMA1, value is the negative log10 of mol/L)?
Its GI50 is 4.84.

What about the GI50 (cell line MDAMB157, value is the negative log10 of mol/L) of the same compound?
Its GI50 is 4.80.

What does the source list for `CCCCCN(C)CCC(O)(P(=O)(O)O)P(=O)(O)O` [Ibandronate sodium salt]?
GI50 [1]: 182 µM; GI50 [2]: 182 µM; GI50 [3]: 20.4 µM; GI50 [4]: 20.4 µM; GI50 [5]: 105 µM; GI50 [6]: 57.5 µM; GI50 [7]: 162 µM; GI50 [8]: 57.5 µM; GI50 [9]: 69.2 µM; GI50 [10]: 43.7 µM; GI50 [11]: 170 µM; GI50 [12]: 7.41 µM; GI50 [13]: 7.59 µM; GI50 [14]: 129 µM; GI50 [15]: 38 µM; GI50 [16]: 33.1 µM; GI50 [17]: 40.7 µM; GI50 [18]: 55 µM; GI50 [19]: 15.1 µM; GI50 [20]: 79.4 µM; GI50 [21]: 69.2 µM; GI50 [22]: 33.9 µM; GI50 [23]: 74.1 µM; GI50 [24]: 49 µM; GI50 (Homo sapiens, MDA-MB-453, MDAMB453 cell line, censored GI50 values, read-out: GI50 (converted)): 110 µM; GI50 [25]: 93.3 µM; GI50 [26]: 89.1 µM; GI50 [27]: 35.5 µM; GI50 [28]: 174 µM; GI50 [29]: 501 µM; GI50 [30]: 50.1 µM; GI50 [31]: 42.7 µM; GI50 [32]: 34.7 µM; GI50 (Homo sapiens, UACC-812, UACC812 cell line, censored GI50 values, read-out: GI50 (converted)): 155 µM; GI50 [33]: 69.2 µM; GI50 (Homo sapiens, ZR-75B, ZR75B cell line, censored GI50 values, read-out: GI50 (converted)): 141 µM
